Structures are written as SMILES. Where two headings read alike, the source gives them in different places.

Common to all, as to type: biochemical
One assay concerns the target T1, Tek (Homo sapiens, UniProt Q02763).
T1 construct: Kinases are expressed as either kinase domains or full length constructs; made in house
Briefly: Kinase inhibition assay (33P transfer), Tek. The conditions noted are these: read-out: Tek-1. The source says: The inhibitor compounds described herein are screened in the following manner. Kinases suitable for use in the following protocol to determine kinase activity of the compounds described herein include, -but are not limited to: Lck, Lyn, Src, Fyn, Syk, Zap-70, Itk, Tec, Btk, EGFR, ErbB2, Kdr, Flt-1, Flt-3, Tek, c-Met, InsR, and AKT.
Kinases are expressed as either kinase domains or full length constructs fused to glutathione S-transferase (GST) or polyHistidine tagged fusion proteins in either E. colior Baculovirus-High Five expression systems. They are purified to near homogeneity by affinity chromatography essentially as previously described (Lehr et al., 1996; Gish et al., 1995). In some instances, kinases are co-expressed or mixed with purified or partially purified regulatory polypeptides prior to measurement of activity.
Kinase activity and inhibition are measured essentially by established protocols (Braunwalder et al., 1996). Briefly, The transfer of ^33PO4 from ATP to the synthetic substrates poly(Glu, Tyr) 4:1 or poly(Arg, Ser) 3:1 attached to the bioactive surface of microtiter plates serves as the basis to evaluate enzyme activity. After an incubation period, the amount of phosphate transferred is measured by first washing the plate with 0.5% phosphoric acid, adding liquid scintillant, and then counting in a liquid scintillation detector. The IC50 is determined by the concentration of compound that causes a 50% reduction in the amount of […] incorporated onto the substrate bound to the plate.

The target in a further assay is T2, Itk (Homo sapiens, UniProt Q08881).
T2 construct: Kinases are expressed as either kinase domains or full length constructs; made in house
T2 sequence (Q08881 1-620): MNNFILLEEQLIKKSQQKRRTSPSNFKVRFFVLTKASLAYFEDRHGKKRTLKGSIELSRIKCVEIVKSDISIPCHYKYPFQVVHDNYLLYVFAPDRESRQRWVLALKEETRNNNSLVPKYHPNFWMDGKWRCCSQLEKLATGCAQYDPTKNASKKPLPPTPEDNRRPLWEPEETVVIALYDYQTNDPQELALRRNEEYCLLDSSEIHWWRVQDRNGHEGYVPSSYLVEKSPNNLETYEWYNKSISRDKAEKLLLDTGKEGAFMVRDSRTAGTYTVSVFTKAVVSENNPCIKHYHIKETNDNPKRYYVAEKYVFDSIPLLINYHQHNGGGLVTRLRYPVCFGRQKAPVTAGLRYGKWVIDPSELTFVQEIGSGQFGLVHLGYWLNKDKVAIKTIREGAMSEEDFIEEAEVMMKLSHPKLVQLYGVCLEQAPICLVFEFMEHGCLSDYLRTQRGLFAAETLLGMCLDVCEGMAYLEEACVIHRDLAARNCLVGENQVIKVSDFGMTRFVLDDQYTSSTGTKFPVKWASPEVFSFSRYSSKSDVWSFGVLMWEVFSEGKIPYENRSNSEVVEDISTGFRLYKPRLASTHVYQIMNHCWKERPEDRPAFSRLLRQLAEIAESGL
Description: Kinase inhibition assay (33P transfer), Itk. To be noted: for IC50: read-out: Itk-1. An outline of the steps:
(§1)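 Kinase domains or full-length enzymes, GST- or polyHis-tagged, were expressed in E. coli or baculovirus High Five cells and affinity-purified. Transfer of 33PO4 from ATP onto plate-bound poly(Glu,Tyr) 4:1 or poly(Arg,Ser) 3:1 was counted by liquid scintillation after a 0.5% phosphoric acid wash. IC50 = concentration halving incorporation.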

A further assay addresses T3, Lck (Homo sapiens, UniProt P06239).
T3 construct: Kinases are expressed as either kinase domains or full length constructs; made in house
Briefly: Kinase inhibition assay (33P transfer), Lck. To be noted: for IC50: read-out: Lck-1. In outline: (§2)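 Filterless plate radiometric format: immobilized poly(Glu,Tyr) 4:1 or poly(Arg,Ser) 3:1, 33P-labelled ATP, tagged recombinant kinase (some with regulatory partners). Incorporated label counted after phosphoric acid wash.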

The target in another assay is T4, EGFR (Homo sapiens, UniProt P00533).
T4 construct: Kinases are expressed as either kinase domains or full length constructs; made in house
T4 sequence (P00533 25-1210, species assumed): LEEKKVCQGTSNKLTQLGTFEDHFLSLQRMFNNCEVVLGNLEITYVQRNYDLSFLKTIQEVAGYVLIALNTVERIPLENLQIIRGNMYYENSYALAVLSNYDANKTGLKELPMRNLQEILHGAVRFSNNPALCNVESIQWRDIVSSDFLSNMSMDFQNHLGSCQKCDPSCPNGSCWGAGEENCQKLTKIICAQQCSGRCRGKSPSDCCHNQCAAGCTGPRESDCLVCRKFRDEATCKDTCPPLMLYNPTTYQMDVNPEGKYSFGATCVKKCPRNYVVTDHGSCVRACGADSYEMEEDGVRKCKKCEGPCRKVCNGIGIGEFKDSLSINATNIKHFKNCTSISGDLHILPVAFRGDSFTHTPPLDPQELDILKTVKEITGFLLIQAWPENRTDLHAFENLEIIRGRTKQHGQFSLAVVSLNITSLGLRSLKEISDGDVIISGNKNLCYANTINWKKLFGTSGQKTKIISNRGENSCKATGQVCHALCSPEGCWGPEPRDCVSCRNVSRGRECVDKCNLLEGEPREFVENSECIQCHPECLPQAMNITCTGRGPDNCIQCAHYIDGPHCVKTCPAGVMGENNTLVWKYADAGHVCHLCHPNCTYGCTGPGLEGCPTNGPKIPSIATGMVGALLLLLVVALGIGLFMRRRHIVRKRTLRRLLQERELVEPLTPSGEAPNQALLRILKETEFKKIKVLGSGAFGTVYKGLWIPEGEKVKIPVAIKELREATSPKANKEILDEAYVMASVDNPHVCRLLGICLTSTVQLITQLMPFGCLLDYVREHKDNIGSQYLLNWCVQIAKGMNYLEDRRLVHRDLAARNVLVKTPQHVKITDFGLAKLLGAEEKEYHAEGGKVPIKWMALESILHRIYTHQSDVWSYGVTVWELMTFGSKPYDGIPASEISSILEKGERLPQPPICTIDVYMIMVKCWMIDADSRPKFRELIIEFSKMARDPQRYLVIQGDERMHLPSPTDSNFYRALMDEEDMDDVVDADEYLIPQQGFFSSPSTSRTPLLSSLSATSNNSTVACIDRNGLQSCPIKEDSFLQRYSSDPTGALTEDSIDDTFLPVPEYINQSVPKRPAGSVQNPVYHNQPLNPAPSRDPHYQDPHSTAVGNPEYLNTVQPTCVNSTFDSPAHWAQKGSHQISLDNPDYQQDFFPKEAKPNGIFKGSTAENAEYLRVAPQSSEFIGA
Description: Kinase inhibition assay (33P transfer), EGFR. The conditions noted are these: Table 2, kinase inhibition class; for IC50: read-out: EGFR-1. An outline of the steps: as §1

For another assay, the target named is T5, c-Met (Homo sapiens, UniProt P08581).
T5 construct: Kinases are expressed as either kinase domains or full length constructs; made in house
T5 sequence (P08581 25-1390): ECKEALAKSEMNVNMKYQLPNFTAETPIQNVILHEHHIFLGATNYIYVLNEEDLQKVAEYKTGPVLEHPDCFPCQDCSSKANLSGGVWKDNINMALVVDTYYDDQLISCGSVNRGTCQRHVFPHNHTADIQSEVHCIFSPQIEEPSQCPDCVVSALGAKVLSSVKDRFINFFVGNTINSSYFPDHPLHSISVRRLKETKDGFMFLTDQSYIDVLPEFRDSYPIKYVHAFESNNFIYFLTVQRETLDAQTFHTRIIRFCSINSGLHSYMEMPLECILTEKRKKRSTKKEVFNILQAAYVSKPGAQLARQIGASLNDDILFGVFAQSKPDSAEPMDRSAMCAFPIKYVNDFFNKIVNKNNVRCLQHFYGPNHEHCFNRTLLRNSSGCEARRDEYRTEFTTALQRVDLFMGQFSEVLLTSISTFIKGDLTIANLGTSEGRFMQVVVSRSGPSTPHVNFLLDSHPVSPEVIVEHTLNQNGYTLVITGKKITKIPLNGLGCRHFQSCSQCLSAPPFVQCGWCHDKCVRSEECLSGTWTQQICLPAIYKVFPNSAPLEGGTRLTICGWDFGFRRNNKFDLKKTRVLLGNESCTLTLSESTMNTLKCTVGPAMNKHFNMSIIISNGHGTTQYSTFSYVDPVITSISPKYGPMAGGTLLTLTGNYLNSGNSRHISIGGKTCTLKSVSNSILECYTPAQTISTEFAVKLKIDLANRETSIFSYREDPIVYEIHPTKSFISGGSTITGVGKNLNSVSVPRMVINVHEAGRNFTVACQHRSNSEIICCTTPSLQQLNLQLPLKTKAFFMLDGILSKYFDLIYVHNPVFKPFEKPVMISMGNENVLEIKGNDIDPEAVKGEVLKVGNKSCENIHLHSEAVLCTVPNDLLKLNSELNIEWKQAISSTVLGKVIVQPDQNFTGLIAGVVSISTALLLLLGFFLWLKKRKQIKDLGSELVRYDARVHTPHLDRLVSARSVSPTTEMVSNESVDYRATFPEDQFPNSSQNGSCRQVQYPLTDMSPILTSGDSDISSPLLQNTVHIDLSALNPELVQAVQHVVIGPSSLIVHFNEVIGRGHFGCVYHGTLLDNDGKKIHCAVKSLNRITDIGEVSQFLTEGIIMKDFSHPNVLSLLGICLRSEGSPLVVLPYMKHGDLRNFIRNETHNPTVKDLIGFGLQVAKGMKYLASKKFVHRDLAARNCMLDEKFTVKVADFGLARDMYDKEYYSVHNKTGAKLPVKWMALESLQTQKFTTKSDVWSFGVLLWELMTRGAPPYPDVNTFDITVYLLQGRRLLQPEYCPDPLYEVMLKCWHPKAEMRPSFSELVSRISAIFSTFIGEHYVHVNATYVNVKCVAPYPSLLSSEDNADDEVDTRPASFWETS
Description: Kinase inhibition assay (33P transfer), c-Met. The conditions noted are these: Table 2, kinase inhibition class; for IC50: read-out: Met-1. An outline of the steps:
as §1

A further assay addresses T6, Kdr (Homo sapiens, UniProt P35968).
T6 construct: Kinases are expressed as either kinase domains or full length constructs; made in house
Description: Kinase inhibition assay (33P transfer), Kdr. The conditions noted are these: for IC50: read-out: KDR-1. An outline of the steps: as §2

In another assay the target is T7, AKT (Homo sapiens, UniProt Q9Y243).
T7 construct: Kinases are expressed as either kinase domains or full length constructs; made in house
T7 sequence (Q9Y243 whole entry, the tested form may be a part): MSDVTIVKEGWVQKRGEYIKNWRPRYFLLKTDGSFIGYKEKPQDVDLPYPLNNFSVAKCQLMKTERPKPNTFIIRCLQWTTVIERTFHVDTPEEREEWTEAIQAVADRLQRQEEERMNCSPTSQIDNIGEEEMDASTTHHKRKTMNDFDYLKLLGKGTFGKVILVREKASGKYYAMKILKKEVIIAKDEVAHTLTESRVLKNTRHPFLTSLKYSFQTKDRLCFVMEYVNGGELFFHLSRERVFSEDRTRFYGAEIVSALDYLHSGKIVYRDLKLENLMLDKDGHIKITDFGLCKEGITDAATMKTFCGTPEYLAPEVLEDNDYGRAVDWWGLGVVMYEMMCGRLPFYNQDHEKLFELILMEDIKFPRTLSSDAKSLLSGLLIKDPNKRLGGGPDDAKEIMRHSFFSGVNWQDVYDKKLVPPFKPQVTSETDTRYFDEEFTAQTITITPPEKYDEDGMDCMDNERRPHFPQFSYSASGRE
Briefly: Kinase inhibition assay (33P transfer), AKT. The conditions noted are these: Table 2, kinase inhibition class; for IC50: read-out: AKT3-1. An outline of the steps: as §2

The target in a further assay is T8, Zap-70 (Homo sapiens, UniProt P43403).
T8 construct: Kinases are expressed as either kinase domains or full length constructs; made in house
T8 sequence (P43403 1-619): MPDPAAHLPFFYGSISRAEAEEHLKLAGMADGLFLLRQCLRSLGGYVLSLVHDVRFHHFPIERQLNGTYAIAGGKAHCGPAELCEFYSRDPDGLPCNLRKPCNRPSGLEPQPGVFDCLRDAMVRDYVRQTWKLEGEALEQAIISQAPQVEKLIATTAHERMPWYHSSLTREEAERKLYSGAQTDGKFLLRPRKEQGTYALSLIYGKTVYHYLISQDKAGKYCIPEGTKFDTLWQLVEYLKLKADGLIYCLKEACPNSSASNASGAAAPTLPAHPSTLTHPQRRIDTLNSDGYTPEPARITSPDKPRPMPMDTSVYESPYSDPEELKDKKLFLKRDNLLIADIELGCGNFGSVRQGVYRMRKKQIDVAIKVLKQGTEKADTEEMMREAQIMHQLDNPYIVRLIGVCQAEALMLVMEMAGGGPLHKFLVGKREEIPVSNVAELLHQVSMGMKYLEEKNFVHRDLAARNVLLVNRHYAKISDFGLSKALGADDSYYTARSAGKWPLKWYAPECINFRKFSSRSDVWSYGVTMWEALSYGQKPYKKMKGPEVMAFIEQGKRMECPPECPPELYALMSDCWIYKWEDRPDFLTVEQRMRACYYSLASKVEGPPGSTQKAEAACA
Briefly: Kinase inhibition assay (33P transfer), Zap-70. The conditions noted are these: for IC50: read-out: Zap-1. In outline:
as §2

T3 sequence (P06239 whole entry, species assumed, the tested form may be a part): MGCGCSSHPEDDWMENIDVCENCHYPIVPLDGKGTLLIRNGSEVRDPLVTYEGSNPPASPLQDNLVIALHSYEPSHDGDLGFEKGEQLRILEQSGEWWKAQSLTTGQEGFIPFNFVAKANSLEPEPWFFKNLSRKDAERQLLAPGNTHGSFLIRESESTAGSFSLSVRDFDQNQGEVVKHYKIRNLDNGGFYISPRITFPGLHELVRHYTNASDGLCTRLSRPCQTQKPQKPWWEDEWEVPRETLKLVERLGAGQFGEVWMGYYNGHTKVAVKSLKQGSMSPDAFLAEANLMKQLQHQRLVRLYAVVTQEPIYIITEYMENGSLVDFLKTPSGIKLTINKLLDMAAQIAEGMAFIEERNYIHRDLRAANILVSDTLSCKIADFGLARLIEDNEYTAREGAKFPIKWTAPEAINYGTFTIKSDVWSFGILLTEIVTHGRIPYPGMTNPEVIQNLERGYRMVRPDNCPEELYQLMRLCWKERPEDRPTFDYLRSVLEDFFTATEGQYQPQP
T6 sequence (P35968 20-1356, species assumed): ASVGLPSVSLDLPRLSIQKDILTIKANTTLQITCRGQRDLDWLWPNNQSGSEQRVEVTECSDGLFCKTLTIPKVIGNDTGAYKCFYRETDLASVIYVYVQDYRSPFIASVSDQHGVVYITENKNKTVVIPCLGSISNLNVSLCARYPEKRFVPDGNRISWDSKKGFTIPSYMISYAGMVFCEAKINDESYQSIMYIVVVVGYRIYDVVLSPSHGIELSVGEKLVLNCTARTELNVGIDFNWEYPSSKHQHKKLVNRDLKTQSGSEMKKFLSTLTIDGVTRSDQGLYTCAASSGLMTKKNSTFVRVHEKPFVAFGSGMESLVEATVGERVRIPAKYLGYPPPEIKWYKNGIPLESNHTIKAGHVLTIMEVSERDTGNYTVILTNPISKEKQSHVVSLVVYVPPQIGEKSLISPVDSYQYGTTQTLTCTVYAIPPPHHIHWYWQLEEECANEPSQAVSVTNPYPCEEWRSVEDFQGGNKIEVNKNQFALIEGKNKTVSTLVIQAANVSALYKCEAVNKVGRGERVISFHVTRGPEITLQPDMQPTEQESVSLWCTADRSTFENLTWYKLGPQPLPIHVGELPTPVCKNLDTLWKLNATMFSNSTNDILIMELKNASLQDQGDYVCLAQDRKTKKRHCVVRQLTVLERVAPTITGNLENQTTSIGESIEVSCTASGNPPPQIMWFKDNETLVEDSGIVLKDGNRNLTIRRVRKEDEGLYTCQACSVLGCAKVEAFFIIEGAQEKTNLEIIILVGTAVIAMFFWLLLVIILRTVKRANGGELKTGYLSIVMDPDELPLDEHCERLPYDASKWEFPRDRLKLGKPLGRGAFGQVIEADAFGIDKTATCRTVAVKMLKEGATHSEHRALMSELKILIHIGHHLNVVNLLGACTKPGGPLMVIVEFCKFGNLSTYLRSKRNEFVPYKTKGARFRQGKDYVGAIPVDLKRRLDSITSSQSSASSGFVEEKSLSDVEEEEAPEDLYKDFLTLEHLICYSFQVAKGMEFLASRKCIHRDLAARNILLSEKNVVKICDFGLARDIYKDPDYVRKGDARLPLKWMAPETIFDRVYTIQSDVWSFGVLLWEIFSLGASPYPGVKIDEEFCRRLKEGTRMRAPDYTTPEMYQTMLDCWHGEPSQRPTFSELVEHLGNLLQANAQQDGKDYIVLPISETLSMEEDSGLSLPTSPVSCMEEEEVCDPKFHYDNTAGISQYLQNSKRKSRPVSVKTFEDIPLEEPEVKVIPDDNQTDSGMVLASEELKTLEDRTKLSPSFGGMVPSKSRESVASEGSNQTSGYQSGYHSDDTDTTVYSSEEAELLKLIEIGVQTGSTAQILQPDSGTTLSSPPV

For the molecule `COc1ccc(-c2ncnc(Nc3cc(OC)c(OC)c(OC)c3)n2)cc1OC` [Compound 230], the IC50 at Tek is 8.78 to 11.3 µM; at Itk it was 8.78 to 11.3 µM; at Lck, 1 to 6.02 µM; at EGFR, 8.78 to 11.3 µM; on c-Met, over 11.3 µM; on Kdr, under 1 µM. Besides, the IC50 at AKT and at Zap-70 was over 11.3 µM throughout.
Consider `O=c1[nH]c2ccccc2n1-c1ncnc(Nc2cccc3ncccc23)n1` [Compound 686], for which the IC50 on Itk, at Lck, at EGFR, on c-Met, on Kdr and on AKT was over 12.7 µM in each case. Also, the IC50 at Zap-70 was over 12.7 µM.
Consider `O=c1[nH]c2ccccc2n1-c1ncnc(Nc2ccc3ncccc3c2)n1` [Compound 687], for which the IC50 was 9.85 to 12.7 µM on Itk; 1.13 to 6.75 µM on Lck; 9.85 to 12.7 µM at EGFR; over 12.7 µM on c-Met; 1.13 to 6.75 µM on Kdr; over 12.7 µM on AKT. In addition, the IC50 on Zap-70 is over 12.7 µM.
As to `O=c1[nH]c2ccccc2n1-c1ncnc(Nc2cccc3cccnc23)n1` [Compound 688], the IC50 on Itk, on Lck, at EGFR, on c-Met, on Kdr and on AKT was over 12.7 µM in each case. For the same molecule, the IC50 on Zap-70 was in the range of 6.75 to 9.85 µM.
For `CC(C)(C)c1cc(Nc2ncnc(Cl)n2)[nH]n1` [Compound 975], the IC50 at Itk, on Lck, at EGFR, on c-Met, at Kdr and at AKT was over 17.8 µM each time. Besides, the IC50 on Zap-70 is over 17.8 µM.
Take `Clc1ncnc(Nc2cc(-c3ccccc3)n[nH]2)n1` [Compound 976]: the IC50 on Itk, on Lck, on EGFR, on c-Met, on Kdr and on AKT was over 16.5 µM each time. Moreover, the IC50 at Zap-70 fell in the range of 8.8 to 12.8 µM.
In the case of `CC(C)(C)OC(=O)NCc1cccc(Nc2ncnc(Nc3cc(C(C)(C)C)n[nH]3)n2)c1` [Compound 987], the IC50 is over 10.3 µM at Itk; 0.912 to 5.47 µM at Lck; over 10.3 µM at EGFR; over 10.3 µM at c-Met; over 10.3 µM at Kdr; over 10.3 µM on AKT. In addition, the IC50 on Zap-70 was over 10.3 µM.
With `COc1cc(Nc2ncnc(Nc3[nH]ncc3-c3cccc(Cl)c3)n2)cc(OC)c1OC` [Compound 999], the IC50 on Itk, at Lck, on EGFR, at c-Met, on Kdr and on AKT was over 9.91 µM in each case. For the same molecule, the IC50 at Zap-70 was over 9.91 µM.
As for `Nc1ncnc(Nc2ccc(C3CCCCC3)cc2)n1` [Compound 1021], the IC50 at Tek, on Itk (Table 3), on Lck (Table 3), on EGFR, on c-Met and on Kdr (Table 3) was over 16.7 µM in each case. On Zap-70 (Table 3), the IC50 was over 16.7 µM.
With `COc1cc(Nc2ncnc(N)n2)cc(OC)c1OC` [Compound 1024, N-(3,4,5-trimethoxy-phenyl)-[1,3,5]triazine-2,4-diamine], the IC50 at Tek, on Itk (Table 3), on Lck (Table 3), at EGFR, at c-Met and on Kdr (Table 3) was over 16.2 µM throughout. The IC50 at Zap-70 (Table 3) was over 16.2 µM.
`COC(=O)n1c(=O)n(-c2ncnc(Nc3cc(OC)c(OC)c(OC)c3)n2)c2ccccc21` [Compound 1032]: the IC50 at Itk is over 9.95 µM; at Lck it was over 9.95 µM; at EGFR it was over 9.95 µM; on c-Met it was over 9.95 µM; on Kdr it was 0.884 to 5.3 µM; at AKT, over 9.95 µM. The IC50 on Zap-70 was over 9.95 µM.
Turning to `COc1cc(Nc2ncnc(-n3c(=O)[nH]c4ccccc43)n2)cc(OCCN2CCOCC2)c1OC` [Compound 1039], the IC50 is over 9.12 µM at Itk; 0.81 to 4.86 µM at Lck; over 9.12 µM on EGFR; over 9.12 µM at c-Met; under 0.81 µM at Kdr; over 9.12 µM at AKT. Besides, the IC50 on Zap-70 is over 9.12 µM.
Take `COc1cc(Nc2ncnc(-c3cccnc3NCCN)n2)cc(OC)c1OC` [Compound 1074]: the Itk-1 entry on Itk was “E (E>4.5 ug/mL)”. The Lck-1 entry at Lck is “C (C>2.4 and <3.5 ug/mL)”. In addition, the EGFR-1 entry on EGFR is listed as “E (E>4.5 ug/mL)”. Besides, the Met-1 result on c-Met was “E (E>4.5 ug/mL)”. Further, the KDR-1 result at Kdr was “B (B>0.4 and <2.4 ug/mL)”. Also, at AKT, the AKT3-1 result is given as “E (E>4.5 ug/mL)”. Also, the Zap-1 result on Zap-70 is reported as “E (E>4.5 ug/mL)”.
Regarding `COc1cc(Nc2ncnc(-c3cccnc3NCCN3CCCCC3)n2)cc(OC)c1OC` [Compound 1079], the IC50 on Itk, at Lck, on EGFR, on c-Met, at Kdr and on AKT was over 9.67 µM in each case. In addition, on Zap-70, the IC50 is over 9.67 µM.
In the case of `COc1cc(Nc2ncnc(-c3cccnc3NCc3ccccn3)n2)cc(OC)c1OC` [Compound 1080], the IC50 at Itk is over 10.1 µM; at Lck it was 5.39 to 7.86 µM; at EGFR it was over 10.1 µM; at c-Met it was over 10.1 µM; at Kdr, under 0.898 µM; at AKT, over 10.1 µM. The IC50 on Zap-70 was over 10.1 µM.
Consider `C=CCNc1ncccc1-c1ncnc(Nc2ccc(C(N)=O)cc2)n1` [Compound 1081], for which the IC50 on Itk was over 13 µM; at Lck, 1.15 to 6.91 µM; at EGFR, over 13 µM; at c-Met, over 13 µM; on Kdr it was under 1.15 µM; on AKT, over 13 µM. In addition, the IC50 at Zap-70 was over 13 µM.

The record behind these values is patent US7074789B2, “Kinase inhibitors” (Amgen Inc., priority 1999, dated 2006).
